US20200079766A1, “MONOCYCLIC OGA INHIBITOR COMPOUNDS” (Janssen Pharmaceutica NV, priority 2016, published 2020)
Like-named read-outs stand apart in the source and are kept apart here.

Molecular target: T1, recombinant human Meningioma Expressed Antigen 5 (MGEA5), also referred to as O-GlcNAcase (OGA) (Homo sapiens, UniProt O60502)
T1 construct: Full length OGA enzyme was purchased at OriGene (cat # TP322411); purchased OriGene TP322411
T1 sequence (O60502 1-916): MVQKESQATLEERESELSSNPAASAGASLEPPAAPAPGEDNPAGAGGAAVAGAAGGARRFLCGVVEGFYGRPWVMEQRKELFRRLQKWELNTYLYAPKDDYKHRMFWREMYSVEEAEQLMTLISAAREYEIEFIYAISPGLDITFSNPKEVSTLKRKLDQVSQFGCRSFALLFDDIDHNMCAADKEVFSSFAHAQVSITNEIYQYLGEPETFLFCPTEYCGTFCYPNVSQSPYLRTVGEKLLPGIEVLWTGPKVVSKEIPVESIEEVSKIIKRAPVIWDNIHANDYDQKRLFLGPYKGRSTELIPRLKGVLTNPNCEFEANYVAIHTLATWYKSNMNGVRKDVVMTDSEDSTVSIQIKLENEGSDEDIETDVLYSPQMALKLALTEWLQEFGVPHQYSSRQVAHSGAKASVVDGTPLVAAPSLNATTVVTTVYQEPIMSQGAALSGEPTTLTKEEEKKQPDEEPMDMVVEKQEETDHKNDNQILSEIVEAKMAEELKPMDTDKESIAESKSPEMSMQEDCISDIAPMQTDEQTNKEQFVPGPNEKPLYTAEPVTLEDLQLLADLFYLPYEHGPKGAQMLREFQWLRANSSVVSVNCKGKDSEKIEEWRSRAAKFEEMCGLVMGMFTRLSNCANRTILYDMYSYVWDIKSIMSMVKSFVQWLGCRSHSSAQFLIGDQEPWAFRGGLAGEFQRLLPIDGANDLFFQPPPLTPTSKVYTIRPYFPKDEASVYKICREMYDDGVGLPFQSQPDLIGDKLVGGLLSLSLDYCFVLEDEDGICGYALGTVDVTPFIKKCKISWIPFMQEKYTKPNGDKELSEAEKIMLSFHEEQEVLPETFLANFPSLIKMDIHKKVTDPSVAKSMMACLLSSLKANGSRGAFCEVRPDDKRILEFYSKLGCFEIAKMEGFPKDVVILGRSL
Experiment: OGA biochemical assay: inhibition of FM-GlcNAc hydrolysis, fluorescence; protocol A (10 nM OGA, 1 h) or protocol B (2 nM OGA, 6 h)
Conditions: for IC50: read-out: Enzymatic hOGA, pIC50 (converted)
From the text: The assay is based on the inhibition of the hydrolysis of fluorescein mono-3-D-N-Acetyl-Glucosamine (FM-GlcNAc) (Mariappa et al. 2015, Biochem J 470:255) by the recombinant human Meningioma Expressed Antigen 5 (MGEA5), also referred to as O-GlcNAcase (OGA). The hydrolysis FM-GlcNAc (Marker Gene technologies, cat # M1485) results in the formation of ß-D-N-glucosamineacetate and fluorescein. The fluorescence of the latter can be measured at excitation wavelength 485 nm and emission wavelength 538 nm. An increase in enzyme activity results in an increase in fluorescence signal. Full length OGA enzyme was purchased at OriGene (cat # TP322411). The enzyme was stored in 25 mM Tris.HCl, pH 7.3, 100 mM glycine, 10% glycerol at −20° C. Thiamet G and GlcNAcStatin were tested as reference compounds (Yuzwa et al. 2008 Nature Chemical Biology 4:483; Yuzwa et al. 2012 Nature Chemical Biology 8:393). The assay was performed in 200 mM Citrate/phosphate buffer supplemented with 0.005% Tween-20. 35.6 g Na2HPO42H2O (Sigma, # C0759) were dissolved in 1 L water to obtain a 200 mM solution. 19.2 g citric acid (Merck, #1.06580) was dissolved in 1 L water to obtain a 100 mM solution. pH of the sodiumphosphate solution was adjusted with the citric acid solution to 7.2. The buffer to stop the reaction consists of a 500 mM Carbonate buffer, pH 11.0. 734 mg
FM-GlcNAc were dissolved in 5.48 mL DMSO to obtain a 250 mM solution and was stored at −20° C. OGA was used at a 10 nM (protocol A) or 2 nM (protocol B) concentration and FM-GlcNAc at a 100 uM final concentration. Dilutions were prepared in assay buffer.
50 nl of a compound dissolved in DMSO was dispensed on Black Proxiplate™ 384 Plus Assay plates (Perkin Elmer, #6008269) and 3 μl fl-OGA enzyme mix added subsequently. Plates were pre-incubated for 60 min at room temperature and then 2 μl FM-GlcNAc substrate mix added. […] Plates were briefly centrifuged for 1 min at 1000 rpm and incubate at room temperature for 1 h (10 nM OGA, protocol A) or 6 h (2 nM OGA, protocol B). To stop the reaction 5 μl STOP buffer were added and plates centrifuge again 1 min at 1000 rpm. Fluorescence was quantified in the Thermo Scientific Fluoroskan Ascent or the PerkinElmer EnVision with excitation wavelength 485 nm and emission wavelength 538 nm.
For analysis a best-fit curve is fitted by a minimum sum of squares method. From this an IC50 value and Hill coefficient was obtained. High control (no inhibitor) and low control (saturating concentrations of standard inhibitor) were used to define the minimum and maximum values.

[1] = Enzymatic protocol B (2 nM OGA, 6 h)
[2] = Enzymatic protocol A (10 nM OGA, 1 h)

Emax [1] | IC50 [1] | Structure (SMILES) | other results
93.5% | 1000 nM | Cc1cc(C[C@H]2CCCN(Cc3ccc4c(c3)OCO4)C2)cc(C)n1 [compound 146] | 
100% | 87.1 nM | CC(=O)Nc1ncc(CN2CCC[C@@H](Cc3cc(C)nc(C)c3)[C@H]2C)s1 (racemic) [compound 169] | 
48% | > 10000 nM | CC(=O)Nc1ncc(CN2CC(COc3cc(C)nc(C)n3)CC(F)(F)C2)s1 (centres unmarked) [compound 161] | 
100% | 81.3 nM | CC(=O)Nc1ncc(CN2CCC[C@@H](Cc3cc(C)nc(C)c3)[C@H]2C)s1 (single isomer, unassigned) [compound 170] | 
100% | 1.7 nM | CC(=O)Nc1ncc(CN2CCC[C@H](Cc3ccc(C)nc3C#N)C2)s1 [compound 125] | 
 |  | CC(=O)Nc1ncc(CN2CCC(Cc3ccc(C(F)(F)F)cn3)C2)s1 (centres unmarked) [compound 68] | Enzymatic Emax (%) [1]: 101.5%; Enzymatic hOGA; pIC50 [1]: 7.10
20.8% | > 10000 nM | Cc1cc(C[C@H]2CCCN(Cc3cc4ccccc4n3C)C2)cc(C)n1 [compound 150] | 
91.9% | 1230 nM | CC(=O)Nc1ncc(CN2CCCC(COc3cc(C)nc(C)c3)C2)[nH]1 (centres unmarked) [compound 120] | 
 |  | CC(=O)Nc1ncc(CN2CCC(Cc3ccc(C(F)(F)F)nn3)C2)s1 (centres unmarked) [compound 65] | Enzymatic Emax (%) [1]: 100%; Enzymatic hOGA; pIC50 [1]: 7.28
 |  | CC(=O)Nc1ncc(CN2CCCC(c3ccccc3)C2)s1 (centres unmarked) [compound 5, reference compound] | Emax [2]: 102%; IC50 [2]: 141 nM
100% | 2.24 nM | CC(=O)Nc1ncc(CN2C[C@@H](Cc3cc(C)nc(C)c3)CC[C@@H]2C)s1 (racemic) [compound 165] | 
43% | > 10000 nM | CC(=O)Nc1ncc(S(=O)(=O)N2CCC(c3ccnc(C)c3)C2)s1 (centres unmarked) [compound 3] | Emax [2]: 15%; IC50 [2]: > 10000 nM
 | 977 nM | CC(=O)Nc1ncc(CN2CCCC(c3cc(C)nc(C)c3)C2)s1 (single isomer, unassigned) [compound 131] | Enzymatic Emax (%) [1]: 85.38%
69% | 2400 nM | Cc1cc(OCC2(F)CCCN(Cc3ccc4nccnc4c3)C2)cc(C)n1 (racemic) [compound 157] | 
50.5% |  | CC(=O)Nc1ncc(S(=O)(=O)N2CCC(c3ccc(C)nc3)C2)s1 (centres unmarked) [compound 4] | 
101% | 8.32 nM | COc1cc(C[C@H]2CCN(Cc3cnc(NC(C)=O)s3)C2)cc(C)n1 [compound 42] | 
91% | 1050 nM | CC(=O)Nc1ncc(CN2CCC(F)(F)C(COc3cc(C)nc(C)n3)C2)s1 (centres unmarked) [compound 162] | 
101% | 63.1 nM | CC(=O)Nc1ncc(CN2CCCC(OCc3cc(C)nc(C)c3)C2)s1 (centres unmarked) [compound 21] | 
100% | 45.7 nM | COc1ccc(C)nc1C[C@H]1CCN(Cc2cnc(NC(C)=O)s2)C1 [compound 57] | 
30.7% | > 10000 nM | Cc1cc(C[C@H]2CCN(C(C)c3cc4ccccc4n3C)C2)cc(C)n1 (mixture of isomers) [compound 94] | 
23.9% | > 10000 nM | Cc1cc(C[C@H]2CCCN(Cc3nc4ccccc4n3C)C2)cc(C)n1 [compound 153] | 
52% | 9550 nM | CC(=O)Nc1ncc(CN2CCC[C@H](Cc3cc(C)nc(C)c3)[C@@H]2C)s1 (single isomer, unassigned) [compound 171] | 

Emax [1] | IC50 [1] | Structure (SMILES) | other results
94% | 617 nM | CC(=O)Nc1ncc(CN2C[C@@H](F)C[C@@H](COc3cc(C)nc(C)n3)C2)s1 (racemic) [compound 164] | 
99.8% | 214 nM | CC(=O)Nc1ncc(CN2CC[C@@H](Nc3cc(C)nc(C)c3)C2)s1 [compound 22] | 
2.86% | > 10000 nM | Cc1cc(C[C@H]2CCCN(Cc3nc4ccccc4[nH]3)C2)cc(C)n1 [compound 151] | 
101% | 63.1 nM | CC(=O)Nc1ncc(CN2CCC(F)C(COc3cc(C)nc(C)n3)C2)s1 (centres unmarked) [compound 163] | 
 |  | CC(=O)Nc1ncc(S(=O)(=O)N2CCCC(Oc3ccnc(C)c3)C2)s1 (centres unmarked) [compound 2] | Emax [2]: 89%; IC50 [2]: 1050 nM
67.6% | 5370 nM | Cc1cc(CC2CCCN(C(C)c3nc4ccccc4[nH]3)C2)cc(C)n1 (racemic) [compound 149] | 
40.9% | > 10000 nM | CC(=O)Nc1ncc(CN2CCC[C@H](Cc3cc(C)nc(C)c3)C2)n1C [compound 174] | 
99.7% | 7.76 nM | CC(=O)Nc1ncc(CN2CCC(Cc3cccc(C(C)C)n3)C2)s1 (centres unmarked) [compound 40] | 
91.9% | 1230 nM | CC(=O)Nc1ncc(CN2CCCC(COc3cc(C)nc(C)c3)C2)[nH]1 (racemic) [compound 132] | 
99% | 2.63 nM | CC(=O)Nc1ncc(CN2C[C@@H](Cc3cc(C)nc(C)c3)CC[C@H]2C)s1 (racemic) [compound 166] | 
 |  | Cc1cc(C[C@H]2CCN(Cc3ccc4c(c3)OCO4)C2)cc(C)n1 [compound 99] | Enzymatic Emax (%) [1]: −6.5%; Enzymatic hOGA; pIC50 [1]: <5
92.9% | 676 nM | Cc1cc(N[C@H]2CCCN(Cc3ccc4nccnc4c3)C2)cc(C)n1 [compound 12] | 
85.6% | 1660 nM | Cc1cc(N[C@@H]2CCCN(Cc3ccc4nccnc4c3)C2)cc(C)n1 [compound 10] | 
 |  | Cc1cc(C[C@H]2CCN(Cc3ccc4sc(C)nc4c3)C2)cc(C)n1 [compound 82] | Enzymatic Emax (%) [1]: 87.4%; Enzymatic hOGA; pIC50 [1]: 5.91
100% | 1.74 nM | CC(=O)Nc1ncc(CN2CCC[C@H](Cc3cnc(C)c(C)n3)C2)s1 [compound 124] | 
8.78% | > 10000 nM | Cc1cc(C[C@H]2CCN(C(C)c3nc4ccccc4[nH]3)C2)cc(C)n1 (mixture of isomers) [compound 78] | 
101% | 158 nM | CC(=O)Nc1ncc(CN2CC[C@H](Nc3cc(C)nc(C)c3)C2)s1 [compound 23] | 
 |  | Cc1cc(C[C@H]2CCN(Cc3ccc4scnc4c3)C2)cc(C)n1 [compound 83] | Enzymatic Emax (%) [1]: 87.8%; Enzymatic hOGA; pIC50 [1]: 5.79
101% | 13.5 nM | CC(=O)Nc1ncc(CN2CCCC(N(C)c3cc(C)nc(C)c3)C2)s1 (centres unmarked) [compound 32] | 
79.2% | 3470 nM | Cc1cc([C@@H]2CCCN([C@@H](C)c3ccc4sc(C)nc4c3)C2)cc(C)n1 [compound 116] | 
 |  | Cc1cc(C[C@H]2CCN(Cc3ccc4c(c3)OCCO4)C2)cc(C)n1 [compound 101] | Enzymatic Emax (%) [1]: 81.7%; Enzymatic hOGA; pIC50 [1]: 5.8
 |  | CC(=O)Nc1ncc(S(=O)(=O)N2CCCC(Oc3cc(C)nc(C)c3)C2)s1 (centres unmarked) [compound 1] | Emax [2]: 96.3%; IC50 [2]: 661 nM
